Experimental data: patent US5659055A, “Cytoprotective fatty moiety compounds” (Virginia Commonwealth University, priority 1995, dated 1997)

Tests used:
[1] = Autooxidation of phosphatidylethanolamine
[2] = system: Human SF-PLA2 Induced Mouse Paw Edema; assay: Human SF-PLA2 induced mouse paw edema, oral administration; format: in vivo
Experimental: The mouse paw edema is inhibited in dose related fashion by increasing concentrations of RISE-1 given orally 1.0 hours before induction of the edema by SF-PLA2.

[3] = Oxidation of arachidonic acid (decreased turbidity and hydroperoxide formation)

Row | SMILES | effect on the autooxidation of phosphatidylethanolamine [1] | oral antiinflammatory activity in this model of edema [2] | effect on the autooxidation of arachidonic acid [3]
1 | CCCCCCCC/C=C\CCCCCCCCOC(=O)CCCCCCC/C=C\CC(CCCCCC)OC(=O)/C=C/C(=O)O (stereo not drawn) [OA1RAFA, Oleyl Alcohol-Ricinoleate-Fumaric Acid Diester] | effective inhibitors | – | –
2 | CCCCC/C=C\C/C=C\CCCCCCCC(=O)OC(C/C=C\CCCCCCCC(=O)O)CCCCCC (stereo not drawn) [RALA, Ricinoleic acid--Linoleic Acid Ester] | effective inhibitors | – | –
3 | CCCCCCCC/C=C\CCCCCCCC(=O)OC(C/C=C\CCCCCCCC(=O)O)CCCCCC (stereo not drawn) [RAOA, Ricinoleic Acid--Oleic Acid Ester] | effective inhibitors | – | –
4 | CCCCCCC(C/C=C\CCCCCCCC(=O)O)OC(=O)CCCCCCCCC(=O)O (stereo not drawn) [RISE-1, Ricinoleic Acid--Sebacyl Ester] | no effect | has oral antiinflammatory activity | no effect
